The structures appear in SMILES notation. Read-outs that look alike come from different tables or passages of the source.

Experimental findings from patent publication US20230346737A1, “COMPOUNDS AND METHODS FOR PREVENTION AND TREATMENT OF VIRUS INFECTIONS” (priority 2020, published 2023) are described below.

The target in assay [1] is T1, SARS-CoV-2 3CLpro (Severe acute respiratory syndrome coronavirus 2, UniProt P0DTD1).
T1 construct: containing 0.25 μM SARS-CoV-2 3CLpro
Kind of assay: Real-time FRET protease assay with SARS-CoV-2 3CLpro and dose-response curve analysis. In kind it is biochemical.

For assay [2], the target named is T2, sodium taurocholate cotransporting polypeptide (NTCP) (Homo sapiens, UniProt Q14973).
T2 construct: expressed in transfected cells; host or cells: Huh7 (NTCP); E. coli BL21(DE3) (GST fusion bait)
T2 sequence (Q14973 1-349): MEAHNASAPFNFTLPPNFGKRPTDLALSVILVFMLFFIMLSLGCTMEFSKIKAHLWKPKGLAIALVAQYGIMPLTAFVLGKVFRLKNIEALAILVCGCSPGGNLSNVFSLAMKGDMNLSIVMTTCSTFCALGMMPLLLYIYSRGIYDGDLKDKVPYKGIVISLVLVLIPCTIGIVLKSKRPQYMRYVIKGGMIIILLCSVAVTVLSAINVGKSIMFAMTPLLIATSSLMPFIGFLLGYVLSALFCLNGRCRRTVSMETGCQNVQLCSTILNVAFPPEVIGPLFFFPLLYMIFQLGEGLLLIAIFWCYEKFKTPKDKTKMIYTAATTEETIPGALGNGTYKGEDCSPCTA
Put plainly: PreS1-NTCP pull down assay. In kind it is binding. The settings on record: 0, 10, 20 and 100 μM. The procedure:
Expression and purification of recombinant fusion proteins and the GST pull-down assay were performed as described previously. Briefly, expression of GST fusion proteins in E. coli BL21(DE3) was induced with 0.5 mM isopropyl-β-D-thiogalactopyranoside, then the bacterial cells were lysed by sonication at 4° C. in PBS containing 1% Triton X-100 (PBST) and separated into soluble and insoluble fractions by centrifugation at 13,800 g for 10 min at 4° C. To perform GST pull-down assays, the soluble fraction of bacterial lysates containing GST-fusion proteins was incubated for 3 hours at 4° C. with glutathione-Sepharose 4B beads (GE Healthcare Bio-Sciences), then the beads were washed 3 times with PBST before being incubated at 4° C. overnight with Huh7 cell lysate with overexpressed IA-NTCP prepared by lysis in PBST containing a protease inhibitor cocktail (1 mM PMSF, 10 μg/ml of aprotinin, 1 μg/ml of pepstatin A, 1 μg/ml of leupeptin). The beads were then washed with PBST, resuspended in sample buffer (12.5 mM Tris-HCl, pH 6.8, 2% SDS, 20% glycerol, 0.25% bromphenol blue, 5% b-mercaptoethanol), and subjected to SDS-polyacrylamide gel electrophoresis and examined by Western blot analysis.
To evaluate the effects of inhibitor on inhibiting HBV infection, cell lysis extracted from cells treated with AR101-DS3 or AR101-DS4.

Where [3] appears, read: Real-Time, 0-100 μM, pre-incubated 1 h at 37° C. with 0.25 μM 3CLpro, read-out: IC50 (μM), inhibition of SARS-CoV-2 3CLpro (Real-Time).

`CC(=O)O[C@@H]1[C@@H](OC(C)=O)[C@@H](O)[C@H](Oc2c(-c3ccc(O)cc3)oc3cc(O)cc(O)c3c2=O)O[C@H]1C` [ARH 007-DS4, kaempferol-3-O-(3,4-O-diacetyl-Alpha-L-rhamnopyranoside)]: the half-inhibitory concentration (IC50) in assay [1] (setting [3]) was found to be 18.8 µM.
In the case of `CC(=O)O[C@@H]1[C@@H](O)[C@@H](OC(C)=O)[C@H](Oc2c(-c3ccc(O)cc3)oc3cc(O)cc(O)c3c2=O)O[C@H]1C` [ARH 007-DS5, kaempferol-3-O-(2,4-O-diacetyl-Alpha-L-rhamnopyranoside)], the IC50 in assay [1] (setting [3]) is 48.2 µM.
The same measure, in the same setting: under `O=c1cc(O)oc(/C=C/c2ccc(O)c(O)c2)c1` [ARH 019-DS2, 2-[(E)-2-(3,4-dihydroxyphenyl)ethenyl]-6-hydroxypyran-4-one] stands 2.49 µM.
Consider `C=C(CC[C@@H](C(=O)O)[C@H]1C[C@H](OC(C)=O)[C@@]2(C)C3=C(CC[C@]12C)[C@@]1(C)CC[C@H](O)C(C)(C)[C@@H]1CC3)C(C)C` [AR101-DS3], for which, in assay [2], the “amount of NTCP from pull down assay” value is on record as “dose dependent increase”.
With `CC(=O)/C=C(O)/C=C/c1ccc(O)c(O)c1` [ARH 019-DS1, 6-(3,4-dihydroxyphenyl)-4-hydroxyhexa-3,5-dien-2-one], the IC50 in assay [1] (setting [3]) was found to be 19.2 µM.
As to `CC1(C)CCC[C@@]2(C)Oc3c(O)ccc(-c4oc5cc(O)cc(O)c5c(=O)c4O)c3C[C@@H]12` [ARH 020-DS2, ugonin N], in assay [1] (setting [3]), the IC50 was found to be 6.33 µM.
`C=C(CC[C@@H](C(=O)O)[C@H]1CC[C@@]2(C)C3=CC[C@H]4C(C)(C)[C@@H](O)CC[C@]4(C)C3=CC[C@]12C)C(C)C` [AR101-DS4]: in assay [2], the “amount of NTCP from pull down assay” value is “significant decreased”.
For `C=C1CCCC(C)(C)C1Cc1c(O)cc2oc(-c3ccc(O)c(O)c3)cc(=O)c2c1O` (stereo not drawn) [ARH 020-DS1, ugonin J], the IC50 in assay [1] (setting [3]) came out at 14.9 µM.
As for `CC1=CCC(C(C)(C)O)C[C@@H]1O` (stereo partly drawn) [ARH013-DS1, trans-p-menth-6-ene-2,8-diol], 32.9 µM corresponded to half-maximal inhibition in assay [1] (IC50).
